Laboratory results: US20130029970A1 (priority 2009, published 2013)

Assays:
[1] = target: T1, human CB2 (hCB2) (Homo sapiens, UniProt P34972); test: 35S GTPγS binding assay, hCB2 agonist; type: biochemical
T1 construct: (cDNA clone) CNR0200000
Summary of the method: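 Agonist-stimulated [35S]GTPγS (0.1 nM) binding measured by scintillation proximity after 90 min at room temperature. Reaction buffer: 50 mM HEPES pH 7.4, 100 mM NaCl, 5 mM MgCl2, 0.001% saponin plus 20 uM GDP. Membranes (5 μg) came from transfected cells expressing hCB2 cDNA (pcDNA3.1+ vector).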

[2] = target: T2, recombinant human cannabinoid receptor CB2 (Homo sapiens, UniProt P34972); test: Cannabinoid receptor radioligand binding assay, [3H]-CP 55,940 displacement, hCB2
T2 construct: (cDNA clone) CNR0200000
Summary of the method: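 Receptor source: membrane pellet (40,000×g) from transfected cells, stored in HEPES pH 7.4/MgCl2/EDTA/sucrose buffer.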

[3] = target: T3, human CB1 receptors (Homo sapiens, UniProt P21554); test: cAMP assay in HEK-293 cells, hCB1 agonist; type: cell-based; conditions: inhibition of forskolin-stimulated cAMP, HEK-293 cells; for EC50: read-out: hCB1 EC50 (cAMP ag)
T3 construct: (cDNA clone) CNR01L000
Summary of the method: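 Agonist EC50 taken as concentration giving half inhibition of forskolin-driven cAMP, normalized to forskolin maximum, from sigmoidal curves. Whole HEK-293 cells stably expressing hCB1, in HEPES/BSA-containing HBSS, exposed 30 min at 37° C. to compound with forskolin (90 uM in 3× dilution); cAMP read after lysis.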

T2 sequence (P34972 whole entry): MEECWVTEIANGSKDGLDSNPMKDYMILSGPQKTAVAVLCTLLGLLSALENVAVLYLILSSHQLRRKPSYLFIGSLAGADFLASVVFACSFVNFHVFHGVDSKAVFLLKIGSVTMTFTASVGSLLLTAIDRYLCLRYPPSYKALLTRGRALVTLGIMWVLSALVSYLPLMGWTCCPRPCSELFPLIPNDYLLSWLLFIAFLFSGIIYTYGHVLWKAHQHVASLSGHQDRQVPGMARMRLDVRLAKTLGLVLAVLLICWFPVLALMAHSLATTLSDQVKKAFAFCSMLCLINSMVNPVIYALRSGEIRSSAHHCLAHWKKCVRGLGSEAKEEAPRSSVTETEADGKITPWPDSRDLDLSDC
T1 sequence (P34972 whole entry): as above
T3 sequence (P21554 whole entry): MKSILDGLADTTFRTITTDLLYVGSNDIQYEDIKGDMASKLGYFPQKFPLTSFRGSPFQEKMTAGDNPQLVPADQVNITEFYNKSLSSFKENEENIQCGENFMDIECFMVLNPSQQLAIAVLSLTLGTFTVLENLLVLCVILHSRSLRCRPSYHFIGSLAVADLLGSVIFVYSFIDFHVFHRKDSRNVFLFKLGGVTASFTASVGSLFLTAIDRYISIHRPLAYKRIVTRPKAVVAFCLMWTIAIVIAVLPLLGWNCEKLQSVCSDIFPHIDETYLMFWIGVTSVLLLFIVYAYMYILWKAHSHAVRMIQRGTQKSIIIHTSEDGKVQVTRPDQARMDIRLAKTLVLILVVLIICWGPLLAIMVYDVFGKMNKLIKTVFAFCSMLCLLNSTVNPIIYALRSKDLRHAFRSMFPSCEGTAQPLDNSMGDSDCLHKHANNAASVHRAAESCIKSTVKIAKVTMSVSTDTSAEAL

| Compound | EC50 [1] [nM] | IC50 [2] [nM] | EC50 [3] [nM] | hCB1 EC50 (cAMP ag, nM) [3] |
| --- | --- | --- | --- | --- |
| Cc1ccc(C(=O)c2cc3cc(C)n(CCN4CCOCC4)c3s2)cc1 [Compound 124, (5-Methyl-6-(2-morpholinoethyl)-6H-thieno[2,3-b]pyrrol-2-yl)(p-tolyl)methanone] | < 100 | 100 to 1000 | 1000 to 10000 |  |
| Cc1ccc(C(O)c2cc3cc(C)n(CCN4CCOCC4)c3s2)cn1 (stereo not drawn) [Compound 125, (5-Methyl-6-(2-morpholinoethyl)-6H-thieno[2,3-b]pyrrol-2-yl)(6-methylpyridin-3-yl)methanol] | 100 to 1000 | > 10000 |  | NS (NS means “Not Significant,” which means less than 30% agonist activity when compared to the positive control.) |
| COc1cc(F)c(C(=O)c2cc3cc(C)n(CCN4CCOCC4)c3s2)c(F)c1 [Compound 127, (2,6-difluoro-4-methoxyphenyl)(5-methyl-6-(2-morpholinoethyl)-6H-thieno[2,3-b]pyrrol-2-yl)methanone] | < 100 | < 100 | 1000 to 10000 |  |
| Cc1ccc(C(=O)c2cc3cc(C)n(CCN4CCOCC4)c3s2)cn1 [Compound 130, (5-methyl-6-(2-morpholinoethyl)-6H-thieno[2,3-b]pyrrol-2-yl)(6-methylpyridin-3-yl)methanone] | 100 to 1000 | 1000 to 10000 |  | NS (NS means “Not Significant,” which means less than 30% agonist activity when compared to the positive control.) |
| COc1ccc(C(=O)c2cc3cc(C)n(CCN4CCOCC4)c3s2)nc1 [Compound 131, (5-methoxypyridin-2-yl)(5-methyl-6-(2-morpholinoethyl)-6H-thieno[2,3-b]pyrrol-2-yl)methanone] | < 100 | 100 to 1000 |  | NS (NS means “Not Significant,” which means less than 30% agonist activity when compared to the positive control.) |
| Cc1cc2cc(C(=O)c3ccc(N(C)C(=O)OC(C)(C)C)cc3)sc2n1CCN1CCOCC1 [Compound 132, tert-butylmethyl(4-(5-methyl-6-(2-morpholinoethyl)-6H-thieno[2,3-b]pyrrole-2-carbonyl)phenyl)carbamate] | 100 to 1000 | 1000 to 10000 |  | NS (NS means “Not Significant,” which means less than 30% agonist activity when compared to the positive control.) |
| CNc1ccc(C(=O)c2cc3cc(C)n(CCN4CCOCC4)c3s2)cc1 [Compound 134, (5-methyl-6-(2-morpholinoethyl)-6H-thieno[2,3-b]pyrrol-2-yl)(4-(methylamino)phenyl)methanone] | 100 to 1000 | 100 to 1000 |  | NS (NS means “Not Significant,” which means less than 30% agonist activity when compared to the positive control.) |
| COc1ccc(C(=O)c2cc3cc(C)n(CCN4CCOCC4)c3s2)c(Cl)n1 [Compound 137, (2-chloro-6-methoxypyridinyl-3-yl)(5-methyl-6-(2-morpholinoethyl)-6H-thieno[2,3-b]pyrrol-2-yl)methanone] | < 100 | < 100 | 100 to 1000 |  |
| COc1ccc(C(=O)c2cc3c(Cl)c(C)n(CCN4CCOCC4)c3s2)cc1 [Compound 140, (4-chloro-5-methyl-6-(2-morpholinoethyl)-6H-thieno[2,3-b]pyrrol-2-yl)(4-methoxyphenyl)methanone] | < 100 | 100 to 1000 |  | NS (NS means “Not Significant,” which means less than 30% agonist activity when compared to the positive control.) |
| CCN(CC)CCn1c(C)cc2cc(C(=O)c3ccc(OC)nc3)sc21 [Compound 142, (6-(2-(diethylamino)ethyl)-5-methyl-6H-thieno[2,3-b]pyrrol-2-yl)(6-methoxypyridin-3-yl)methanone] | 100 to 1000 | 1000 to 10000 |  | NS (NS means “Not Significant,” which means less than 30% agonist activity when compared to the positive control.) |
| COc1ccc(C(=O)c2cc3cc(C)n(CC4CCOCC4)c3s2)cn1 [Compound 144, (6-methoxypyridin-3-yl)(5-methyl-6-((tetrahydro-2H-pyran-4-yl)methyl)-6H-thieno[2,3-b]pyrrol-2-yl)methanone] | < 100 | 100 to 1000 |  | NS (NS means “Not Significant,” which means less than 30% agonist activity when compared to the positive control.) |
| COc1ccc(C(=O)c2cc3cc(C)n(CC4CCOCC4)c3s2)c(F)c1 [Compound 145, (2-fluoro-4-methoxyphenyl)(5-methyl-6-((tetrahydro-2H-pyran-4-yl)methyl)-6H-thieno[2,3-b]pyrrol-2-yl)methanone] | < 100 | < 100 | 1000 to 10000 |  |
| CCOc1ccc(C(=O)c2cc3cc(C)n(CCN4CCOCC4)c3s2)cn1 [Compound 150, (6-Ethoxypyridin-3-yl)(5-methyl-6-(2-morpholinoethyl)-6H-thieno[2,3-b]pyrrol-2-yl)methanone] | 100 to 1000 | 1000 to 10000 |  | NS (NS means “Not Significant,” which means less than 30% agonist activity when compared to the positive control.) |
| COc1ccc(C(=O)c2cc3cc(C)n(CC4CCC(F)(F)CC4)c3s2)cn1 [Compound 170, (6-((4,4-difluorocyclohexyl)methyl)-5-methyl-6H-thieno[2,3-b]pyrrol-2-yl)(6-methoxypyridin-3-yl)methanone] | < 100 | 100 to 1000 | < 100 |  |
